Four compounds from ChEMBL document CHEMBL5120855, “Potent 2,3-dihydrophthalazine-1,4-dione derivatives as dual inhibitors for mono-ADP-ribosyltransferases PARP10 and PARP15” (Eur J Med Chem, 2022) can be followed below.

The test system of series [1] is HeLa. As to the kind of experiment: Rescue of cell viability in human HeLa cells expressing wild type PARP10 at upto 10 uM incubated for 10 to 12 days by methylene blue dye based colony formation assay. It counts as functional.
The target of series [2] is T1, Protein mono-ADP-ribosyltransferase PARP10 (Homo sapiens, UniProt Q53GL7).
T1 sequence (Q53GL7 whole entry): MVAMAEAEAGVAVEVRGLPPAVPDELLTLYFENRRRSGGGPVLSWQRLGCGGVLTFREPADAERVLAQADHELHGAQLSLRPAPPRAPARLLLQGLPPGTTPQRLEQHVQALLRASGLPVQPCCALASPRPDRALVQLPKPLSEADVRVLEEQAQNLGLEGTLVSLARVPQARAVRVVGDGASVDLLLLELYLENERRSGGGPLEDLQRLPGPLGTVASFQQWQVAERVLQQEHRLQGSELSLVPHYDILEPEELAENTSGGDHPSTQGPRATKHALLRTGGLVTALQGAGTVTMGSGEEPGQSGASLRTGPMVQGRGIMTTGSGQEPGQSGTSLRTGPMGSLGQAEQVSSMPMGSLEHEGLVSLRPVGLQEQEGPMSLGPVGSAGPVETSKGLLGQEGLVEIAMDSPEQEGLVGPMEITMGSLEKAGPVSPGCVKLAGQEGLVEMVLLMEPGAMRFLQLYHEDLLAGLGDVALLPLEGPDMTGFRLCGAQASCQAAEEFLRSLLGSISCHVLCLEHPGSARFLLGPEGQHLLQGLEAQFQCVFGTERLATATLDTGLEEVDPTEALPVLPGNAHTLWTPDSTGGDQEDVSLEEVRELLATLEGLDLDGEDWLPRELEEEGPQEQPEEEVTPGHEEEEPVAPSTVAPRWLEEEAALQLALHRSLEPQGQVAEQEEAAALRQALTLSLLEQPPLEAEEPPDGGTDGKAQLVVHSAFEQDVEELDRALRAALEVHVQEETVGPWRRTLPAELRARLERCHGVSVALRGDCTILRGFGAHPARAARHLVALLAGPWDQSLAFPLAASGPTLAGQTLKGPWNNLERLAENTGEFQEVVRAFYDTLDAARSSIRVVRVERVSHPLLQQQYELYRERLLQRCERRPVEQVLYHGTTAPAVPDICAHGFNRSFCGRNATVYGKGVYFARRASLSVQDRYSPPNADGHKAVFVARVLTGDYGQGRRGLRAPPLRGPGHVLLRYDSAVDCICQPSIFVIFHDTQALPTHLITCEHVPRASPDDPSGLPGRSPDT
In words: Inhibition of human PARP-10 using NAD+ as substrate incubated for 10 mins by fluorescence based analysis.

In series [3] the target is T2, Protein mono-ADP-ribosyltransferase PARP15 (Homo sapiens, UniProt Q460N3).
T2 sequence (Q460N3 whole entry): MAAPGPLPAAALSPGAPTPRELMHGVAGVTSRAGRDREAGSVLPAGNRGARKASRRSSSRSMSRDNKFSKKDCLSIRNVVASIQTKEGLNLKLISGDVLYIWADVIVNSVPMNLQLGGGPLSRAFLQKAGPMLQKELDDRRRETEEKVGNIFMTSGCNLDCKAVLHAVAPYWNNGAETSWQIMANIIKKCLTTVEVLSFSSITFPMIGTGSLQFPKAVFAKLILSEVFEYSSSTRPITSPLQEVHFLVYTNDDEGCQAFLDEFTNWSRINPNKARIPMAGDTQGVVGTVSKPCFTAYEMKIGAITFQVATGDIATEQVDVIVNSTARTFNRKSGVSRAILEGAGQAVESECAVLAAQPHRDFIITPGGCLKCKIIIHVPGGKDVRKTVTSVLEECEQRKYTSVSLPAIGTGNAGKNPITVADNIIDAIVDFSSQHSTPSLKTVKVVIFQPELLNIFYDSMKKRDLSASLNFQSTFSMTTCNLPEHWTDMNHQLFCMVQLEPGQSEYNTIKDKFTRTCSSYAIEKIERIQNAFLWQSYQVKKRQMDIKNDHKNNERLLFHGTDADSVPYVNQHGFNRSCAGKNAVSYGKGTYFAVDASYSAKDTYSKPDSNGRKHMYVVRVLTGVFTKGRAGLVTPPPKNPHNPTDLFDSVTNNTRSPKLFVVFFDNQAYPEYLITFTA
In words: Inhibition of human N-terminal 6His-tagged PARP15 (460 to 656 residues) expressed in Escherichia coli Rosetta2 (DE3) cells using NAD+ as substrate incubated for 10 mins by fluorescence based analysis.

Series [4] deals with HEK-293T. In words: Cytotoxicity against HEK293T cells assessed as reduction in cell viability at 10 uM measured after 24 hrs by WST-1 assay. It counts as toxicity, cell-based. Conditions: human. In general terms: Tetrazolium dyes change colour on reduction, which living cells bring about.
Series [5] concerns HEK-293T. In words: Cytotoxicity against HEK293T cells assessed as reduction in cell viability at 100 uM measured after 24 hrs by WST-1 assay. The format is toxicity, cell-based. Conditions: human.
Series [6] addresses T3, Poly [ADP-ribose] polymerase tankyrase-2 (Homo sapiens, UniProt Q9H2K2).
T3 sequence (Q9H2K2 whole entry): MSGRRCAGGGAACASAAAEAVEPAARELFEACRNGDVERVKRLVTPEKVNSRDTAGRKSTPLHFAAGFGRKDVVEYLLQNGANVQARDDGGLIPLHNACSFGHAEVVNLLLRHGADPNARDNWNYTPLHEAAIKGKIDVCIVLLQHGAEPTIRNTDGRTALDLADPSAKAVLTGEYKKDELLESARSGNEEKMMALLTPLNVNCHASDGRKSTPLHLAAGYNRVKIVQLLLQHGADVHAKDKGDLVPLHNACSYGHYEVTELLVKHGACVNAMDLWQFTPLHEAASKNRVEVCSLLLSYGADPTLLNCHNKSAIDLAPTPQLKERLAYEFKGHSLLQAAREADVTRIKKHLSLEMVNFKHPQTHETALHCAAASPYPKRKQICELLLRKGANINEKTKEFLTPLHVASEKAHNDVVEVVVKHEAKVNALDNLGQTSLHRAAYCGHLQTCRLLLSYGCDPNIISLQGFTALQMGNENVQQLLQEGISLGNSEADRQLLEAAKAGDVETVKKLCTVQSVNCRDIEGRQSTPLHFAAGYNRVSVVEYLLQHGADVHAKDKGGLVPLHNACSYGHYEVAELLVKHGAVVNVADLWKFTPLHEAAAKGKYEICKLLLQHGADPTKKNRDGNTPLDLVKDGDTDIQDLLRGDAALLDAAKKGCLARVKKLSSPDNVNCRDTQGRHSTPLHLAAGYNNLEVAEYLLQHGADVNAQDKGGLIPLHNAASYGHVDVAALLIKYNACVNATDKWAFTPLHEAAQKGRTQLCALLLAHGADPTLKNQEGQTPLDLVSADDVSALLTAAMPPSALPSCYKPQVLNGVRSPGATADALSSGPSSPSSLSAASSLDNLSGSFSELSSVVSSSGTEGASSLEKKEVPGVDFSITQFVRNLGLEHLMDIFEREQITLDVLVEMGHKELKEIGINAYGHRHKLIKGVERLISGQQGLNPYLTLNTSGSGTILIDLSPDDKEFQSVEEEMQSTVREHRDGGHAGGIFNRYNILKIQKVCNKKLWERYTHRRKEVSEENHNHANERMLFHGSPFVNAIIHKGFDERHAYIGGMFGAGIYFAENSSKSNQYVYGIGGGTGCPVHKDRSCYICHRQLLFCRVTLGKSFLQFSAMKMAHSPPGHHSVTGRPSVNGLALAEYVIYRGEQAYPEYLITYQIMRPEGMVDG
In words: Inhibition of human N-terminal 6His-tagged TNKS2 (1030 to 1317 residues) expressed in Escherichia coli Rosetta2 (DE3) cells using NAD+ as substrate incubated for 10 mins by fluorescence based analysis.

The target in series [7] is Poly [ADP-ribose] polymerase 2 (Homo sapiens, UniProt Q9UGN5). As to the kind of experiment: Inhibition of human PARP2 using NAD+ as substrate incubated for 10 mins by fluorescence based analysis.
Poly [ADP-ribose] polymerase 2, sequence (Q9UGN5 whole entry): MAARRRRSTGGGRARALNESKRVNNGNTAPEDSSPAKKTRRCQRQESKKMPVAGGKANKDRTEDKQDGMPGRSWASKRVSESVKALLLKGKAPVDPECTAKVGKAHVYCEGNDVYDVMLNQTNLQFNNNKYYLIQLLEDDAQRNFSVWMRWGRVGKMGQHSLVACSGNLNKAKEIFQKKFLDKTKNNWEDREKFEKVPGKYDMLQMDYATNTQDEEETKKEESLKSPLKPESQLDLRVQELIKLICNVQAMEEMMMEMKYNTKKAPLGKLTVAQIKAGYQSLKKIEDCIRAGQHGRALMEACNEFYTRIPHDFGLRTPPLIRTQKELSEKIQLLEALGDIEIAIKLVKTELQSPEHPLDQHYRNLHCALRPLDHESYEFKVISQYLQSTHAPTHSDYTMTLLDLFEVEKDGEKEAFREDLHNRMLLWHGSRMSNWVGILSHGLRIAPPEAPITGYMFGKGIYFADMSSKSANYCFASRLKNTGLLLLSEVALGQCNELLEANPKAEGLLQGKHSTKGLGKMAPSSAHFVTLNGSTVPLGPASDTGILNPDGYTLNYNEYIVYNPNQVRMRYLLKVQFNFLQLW
The target of series [8] is Protein mono-ADP-ribosyltransferase PARP14 (Homo sapiens, UniProt Q460N5). As to the kind of experiment: Inhibition of human PARP14 using NAD+ as substrate incubated for 10 mins by fluorescence based analysis.
Protein mono-ADP-ribosyltransferase PARP14, sequence (Q460N5 whole entry): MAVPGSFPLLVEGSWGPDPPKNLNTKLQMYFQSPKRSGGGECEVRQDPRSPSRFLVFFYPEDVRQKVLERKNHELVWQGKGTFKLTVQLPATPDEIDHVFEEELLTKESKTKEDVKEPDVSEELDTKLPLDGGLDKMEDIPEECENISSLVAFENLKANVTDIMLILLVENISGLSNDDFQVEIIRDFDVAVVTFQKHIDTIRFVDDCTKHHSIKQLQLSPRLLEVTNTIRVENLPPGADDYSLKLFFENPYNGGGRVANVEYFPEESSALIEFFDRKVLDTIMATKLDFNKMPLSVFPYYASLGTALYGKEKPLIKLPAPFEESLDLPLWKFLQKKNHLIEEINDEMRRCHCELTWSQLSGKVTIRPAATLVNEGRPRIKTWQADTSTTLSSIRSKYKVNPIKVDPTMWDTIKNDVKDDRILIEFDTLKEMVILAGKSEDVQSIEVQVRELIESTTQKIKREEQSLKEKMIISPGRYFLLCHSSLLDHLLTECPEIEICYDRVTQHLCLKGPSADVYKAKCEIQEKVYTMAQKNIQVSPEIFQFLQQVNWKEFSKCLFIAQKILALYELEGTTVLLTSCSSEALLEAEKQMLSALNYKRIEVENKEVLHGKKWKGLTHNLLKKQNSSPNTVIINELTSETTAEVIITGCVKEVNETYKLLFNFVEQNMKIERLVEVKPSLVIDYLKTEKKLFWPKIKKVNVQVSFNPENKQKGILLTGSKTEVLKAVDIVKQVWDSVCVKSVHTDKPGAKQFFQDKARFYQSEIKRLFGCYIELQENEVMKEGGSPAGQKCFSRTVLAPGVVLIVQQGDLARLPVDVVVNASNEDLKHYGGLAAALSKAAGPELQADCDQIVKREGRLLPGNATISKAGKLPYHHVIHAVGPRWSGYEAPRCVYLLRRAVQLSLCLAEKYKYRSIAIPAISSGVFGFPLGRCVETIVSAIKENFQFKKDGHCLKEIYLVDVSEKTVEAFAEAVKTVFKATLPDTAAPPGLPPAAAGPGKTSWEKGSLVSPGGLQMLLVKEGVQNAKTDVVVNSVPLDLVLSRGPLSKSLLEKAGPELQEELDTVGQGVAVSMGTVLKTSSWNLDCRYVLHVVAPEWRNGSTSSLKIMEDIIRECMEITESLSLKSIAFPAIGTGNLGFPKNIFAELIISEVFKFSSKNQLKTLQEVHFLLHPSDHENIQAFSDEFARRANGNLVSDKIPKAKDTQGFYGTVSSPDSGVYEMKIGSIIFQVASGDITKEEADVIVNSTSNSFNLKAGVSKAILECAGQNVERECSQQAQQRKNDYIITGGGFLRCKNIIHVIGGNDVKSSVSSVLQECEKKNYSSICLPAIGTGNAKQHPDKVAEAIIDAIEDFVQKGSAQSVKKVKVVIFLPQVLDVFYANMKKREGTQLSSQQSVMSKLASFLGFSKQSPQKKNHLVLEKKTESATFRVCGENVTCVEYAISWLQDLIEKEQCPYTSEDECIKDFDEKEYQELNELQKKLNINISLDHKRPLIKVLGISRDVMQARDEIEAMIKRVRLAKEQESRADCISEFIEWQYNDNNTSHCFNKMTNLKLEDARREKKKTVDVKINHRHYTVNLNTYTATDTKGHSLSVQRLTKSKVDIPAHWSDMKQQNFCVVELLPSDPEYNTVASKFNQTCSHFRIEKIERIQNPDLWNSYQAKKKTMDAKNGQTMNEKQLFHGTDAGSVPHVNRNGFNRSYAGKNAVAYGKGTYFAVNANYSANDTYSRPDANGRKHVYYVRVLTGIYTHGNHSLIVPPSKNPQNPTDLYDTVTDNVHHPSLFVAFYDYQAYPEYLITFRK
The target of series [9] is T2, Protein mono-ADP-ribosyltransferase PARP15. In words: Inhibition of PARP15 (unknown origin).

Broadly, the EC50 is the midpoint of the concentration-response curve. A higher EC50 goes with a need for much substance. The IC50 is the concentration at which inhibition is half-maximal. A lower IC50 goes with greater potency in that assay. As to `O=c1[nH][nH]c(=O)c2cc(OCC3CCCCC3)ccc12`, the EC50 in series [1] came to 1500 nM. Besides, the IC50 in [2] was 140 nM; in series [3], 400 nM. The Activity result in [4] is recorded as “Non-Toxic”.

Turning to `COc1cc(OCc2ccccc2F)ccc1C(N)=O`, the Activity result was “Toxic” in series [5] and “Non-Toxic” in [4]. The 50% inhibitory concentration (IC50) in series [2] is 1900 nM; in [6], greater than 100000 nM; in [3] it was 2600 nM; in series [7], greater than 100000 nM; in series [8], greater than 10000 nM.

Compound `O=c1[nH][nH]c(=O)c2cc(OCc3ccsc3)ccc12` registered an EC50 in series [1] of 950 nM. Moreover, the IC50 worked out at 160 nM in series [2] and 400 nM in series [3]. Moreover, the Activity result in [4] is on record as “Non-Toxic”.

`Cc1cccc(C(=O)N[C@H](C(N)=O)C(=O)c2ccc3c(=O)[nH][nH]c(=O)c3c2)c1` had an IC50 in series [9] of 200 nM.
